One data set relates to HCoV-229E-Rluc. Type of data set: cell-based. As to conditions: Huh-7 cells, 7h post-infection.
Data set [1] has as its system SARS-CoV-2. Type of data set: cell-based. As to conditions: Calu-3 cells, MOI 0.25, 24 h.
Data set [2] concerns hSARS-CoV2. Description: Viral genomic replication (RT-qPCR) in Vero81 and TMPRSS2-transduced Vero81 cells. The class given is cell-based, SARS-CoV-2. On the procedure: Cell culture: Vero81 cells and Vero-81 cells transduced with TMPRSS2 were cultured in Dulbecco’s modified Eagle medium (DMEM) supplemented with 10% fetal bovine serum (FBS) and GlutaMAX™ in a humidified atmosphere of 5% CO2 at 37° C.
Tested compound: solutions of clofoctol were prepared in DMSO at concentrations required to achieve the desired concentrations in the experiment. Solutions were dispensed onto the living cells. The maximum concentration of DMSO was 0.15%.
Cell infection: cells were infected after addition of clofoctol at various concentrations or control solvents. The multiple of infection was 0.25. […]
RNA dosing: after 6 hours of incubation, total cellular RNA was extracted by using the Nucleospin RNA kit (Macherey-Nagel) as recommended by the manufacturer and SARS-CoV-2 genome were measured by quantitative RT-PCR. […] Primers and probe (WHO protocol) targeting the open reading frame for the E gene were used. […]
The effect of clofoctol on Vero81 and TMPRSS2-transduced Vero81 cells infected with hSARS-CoV2 was assessed by adding a range of concentrations of clofoctol, following 1:2,5 dilutions, prior to infection with hSARS-CoV2 at MOI 0.25 for 6 hours. […]
Results were obtained by dosing viral RNA and the viral load was expressed as the ratio of the viral RNA on the total RNA (RNAt) of the sample. […]
Background: Real-time PCR tracks product formation cycle by cycle.

Data set [3] is described as follows: Pharmacokinetics in C57BL/6J mice, plasma and lung concentration. Particulars: i.p. 62.5 mg/kg single dose or twice daily for two days. The class given is in vivo. As to the method:
Clofoctol diluted in 1.75% final Kolliphor® RH40 (07076, Sigma) and 1.4% final ethanol in a sodium chloride solution was used for intraperitoneal injection. Female 8-10 week-old C57BL/6J mice were treated i.p. with a single dose of clofoctol (62.5 mg/kg) and were sacrificed at different time points thereafter (FIG. 9, left panel). In a separate experiment, the mice were treated i.p. twice daily with a dose of clofoctol (62.5 mg/kg) for two days, and the mice were sacrificed 1 h after the last injection (FIG. 9, right panel). The concentration of clofoctol in the plasma and lung of treated mice was measured as follows: plasma samples and lung tissues were collected and treated with absolute ethanol, in a ratio of 1 to 10 and 1 to 50, respectively. Lung tissues were homogenized with a mechanical lysis system (Tissue Lyzer II). Supernatants were obtained by centrifugation before injection in LC-MS/MS. Samples were analysed using UPLC system Acquity I Class (Waters), combined with a triple quadrupole mass spectrometer Xevo TQD (Waters). The column, placed at 40° C., was an Acquity BEH C8 50*2.1 mm, 1.7 µm column (Waters) and the following mobile phases were used: 5 mM ammonium formate pH 3.75 in water, as solvent (A) and 5 mM ammonium formate pH 3.75 in acetonitrile as solvent (B). […]

The test system of data set [4] is hSARS-CoV2. The data set is described as follows: Cytopathic effect and cell growth in TMPRSS2-transduced Vero81 cells infected with hSARS-CoV2. Type of data set: cell-based, SARS-CoV-2. As to conditions: MOI 0.01, 72 hours. As to the method: Vero-81 cells were transduced with a lentivirus expressing TMPRSS2. TMPRSS2 was cloned into pTRIP vector, lentivectors were produced by transfection of HEK293T cells with pTRIP-TMPRSS2, phCMV-VSVG and HIV gag-pol with Turbofect™ (ThermoFischer) according to the manufacturer’s instruction. Supernatants containing lentiviral vectors were used to transduce cells. Then cells were used in experiments 72 h after the transduction.
Tested compound: solutions of the clofoctol were prepared in DMSO at concentrations required to achieve the desired concentrations in the experiment. Solutions were dispensed onto the living cells. The maximum concentration of DMSO was 0.15%. […]
The effect of clofoctol on TMPRSS2-transduced Vero81 cells infected with hSARS-CoV2 was assessed by adding a range of concentrations of clofoctol, following 1:3 dilutions, prior to infection with hSARS-CoV2 at MOI 0.01 for 72 hours. […]
(§1) The results were obtained by analyzing the percentage of PI-positive nuclei expressed as the percentage of CPE relative to a scale defined by positive (0% infected cells) and negative (100% infected cells) controls. […]
The results were obtained by analyzing the number of living cells expressed as the percentage of cell growth improvement relative to a scale defined by normal cell growth (not infected controls) and no cell growth (infected controls). […]
In general terms: Damage to the host cells serves as the signal in cytopathic effect assays.

The test system of data set [5] is SARS-CoV-2. The class given is cell-based. As to conditions: Vero-81 and Vero-81-TMPRSS2 cells, MOI 0.25, treatment after 1 h infection, 16 h.
The conditions of data set [6]: read-out: Cmax in human lung tissue; patients undergoing pulmonary resection or pneumonectomy, clofoctol administered before or during surgery; cited from earlier work.
The test system of data set [7] is hSARS-CoV2. Description: Cytopathic effect and cell growth in Vero81 cells infected with hSARS-CoV2. Type of data set: cell-based, SARS-CoV-2. Particulars: MOI 0.01, 72 hours. As to the method:
Vero cells [ATCC® CCL-81™, ECACC, Sigma-Aldrich, France, hereafter “Vero81” cells] were cultured in Dulbecco’s modified Eagle medium (DMEM) supplemented with 10% fetal bovine serum (FBS) and GlutaMAX™ in a humidified atmosphere of 5% CO2 at 37° C.
Tested compound: solutions of the clofoctol were prepared in DMSO at concentrations required to achieve the desired concentrations in the experiment. Solutions were dispensed onto the living cells. The maximum concentration of DMSO was 0.15%.
Cell infection: cells were infected after addition of clofoctol at various concentrations or control solvents. The multiple of infection was 0.01. […]
The effect of clofoctol on Vero81 cells infected with hSARS-CoV2 was assessed by adding a range of concentrations of clofoctol, following 1:3 dilutions, prior to infection with hSARS-CoV2 at MOI 0.01 (Multiple Of Infection (MOI) 0.01 means that the amount of virus used is 0.01 per 1 cell) for 72 hours. […]
as §1
The effect of clofoctol on Vero81 cells infected with hSARS-CoV2 was assessed by adding a range of concentrations of clofoctol, following 1:3 dilutions, prior to infection with hSARS-CoV2 at MOI 0.01 for 72 hours. […]

Data set [8] concerns SARS-CoV-2. The class given is in vivo, K18-human ACE2 expressing C57BL/6 mice. As to conditions: i.p. 62.5 mg/kg 1 h and 8 h after inoculation and twice daily at day 1; day 2 post-infection.
The next data set deals with hSARS-CoV-2. Description: Infected human bronchial epithelia (MucilAir), secreted virus and viral RNA. Particulars: apical administration, MOI 0.2, 72 hours. The class given is cell-based, SARS-CoV-2. As to the method: Human bronchial epithelia (MucilAir™, available from the company Epithelix) were treated through apical administration of clofoctol. The epithelia were first washed with Mucilair® culture medium containing different concentrations of clofoctol prior to infection by hSARS-CoV-2 at MOI 0.2 for 1 hour, still in the presence of clofoctol. Then, the inoculum was removed and epithelia were washed with PBS before addition at the apical pole of 25 µl of Mucilair® culture medium containing different concentrations of clofoctol. After 72 hours of incubation at 37° C., 200 µl of MucilAir™ culture medium was added at the apical pole of the epithelia and harvested, after incubating for 5 minutes. These supernatants were used to quantify the amount of secreted virus as assessed by TCID50. The results are shown in FIG. 15 in which the dotted line represents the limit of detection […]. In addition, total RNAs were extracted by using the Nucleospin RNA kit (Macherey-Nagel) prior to genome quantification by RT-qPCR. The data in both FIGS. 15 and 16 represent the average and standard-deviation of technical triplicates (n=3).

“Also recorded” adds a separate entry of the source.

`CC(C)(C)CC(C)(C)c1ccc(O)c(Cc2ccc(Cl)cc2Cl)c1` [clofoctol, 2-(2,4-Dichlorobenzyl)-4-(1,1,3,3-tetramethylbutyl)phenol]: the “Activity against HCoV-229E (luciferase activity, percentage of control)” value in the data set with HCoV-229E-Rluc is reported as “active against HCoV-229E”. Besides, the “SARS-CoV-2 replication (viral RNA by RT-qPCR)” value with SARS-CoV-2 [1] was “inhibits SARS-CoV-2 replication in Calu-3 cells”. In addition, the “IC95 of viral load (ratio of viral RNA on total RNA)” value in the data set on hSARS-CoV2 [2] (Vero81 and TMPRSS2-transduced Vero81 cells, MOI 0.25, 6 hours) worked out at 11 µM. Also, in the data set on hSARS-CoV2 [2] (Vero-81 and Vero-81-TMPRSS2 cells, MOI 0.25, 6 h, increasing concentrations), the “Genomic replication of SARS-CoV-2 (viral RNA by RT-qPCR, normalized to total RNA)” value is recorded as “inhibits the replication of hSARS-CoV2 in infected cells; also recorded: inhibits the genomic replication of SARS-CoV-2”. Also, in data set [3], the “Distribution in lungs (concentration in plasma and lung)” value is on record as “distributed in lungs at very significant levels”. Also, the “IC95 of the CPE (percentage of PI-positive nuclei)” value with hSARS-CoV2 [4] is on record as 8.7 µM. Besides, the “EC95 (cell growth improvement)” value with hSARS-CoV2 [4] (estimated) was around 25 µM. In the data set with SARS-CoV-2 [5], the “Secreted infectious virus (TCID50) in supernatants” value is listed as “inhibits the secretion of hSARS-CoV-2 by infected cells; also recorded: SARS-CoV-2 load decreases as the concentration of clofoctol increases”. Moreover, the maximum concentration (Cmax) in [6] is around 250 µM. Moreover, in the data set on hSARS-CoV2 [7], the “IC95, concentration reducing 95% of the CPE (percentage of PI-positive nuclei)” value is 9.2 µM. For the same molecule, the “EC95, concentration at which 95% of maximum response is observed (cell growth improvement)” value with hSARS-CoV2 [7] (estimated) is listed as around 21 µM. In addition, in the data set with SARS-CoV-2 [8], the “SARS-CoV-2 infection in mice (lung viral load by titration and RT-qPCR)” value is “significantly reduces SARS-CoV-2 infection in mice”. For the same molecule, the “Factor of reduction of virus titer in the mucus of human bronchial epithelium (TCID50)” value with hSARS-CoV-2 (30 µM) is listed as “more than 100”. Also, the “Viral RNA quantitation (RT-qPCR) in human bronchial epithelia” value in the data set on hSARS-CoV-2 (not normalized) is given as “decrease of viral RNA quantitation”.

As a reminder, the Cmax is the peak of the concentration-time curve.

Source of the values: patent publication US20230233483A1, “COMPOUND AND METHOD FOR THE TREATMENT OF CORONAVIRUSES” (Apteeus, priority 2020, published 2023).
